# Measurements published in US20100129432A1, “MICROORGANISM-KILLING COMBINATION” (TAIPEI MEDICAL UNIVERSITY, priority 2008, published 2010).
# Experiments:
# [1] = tested on: Staphylococcus aureus (BCRC 10780); assay: Rose Bengal, Methylene Blue and Chlorin e6 mediated PDI with or without chitosan, survival fraction; type: cell-based
# Candida albicans = assay: Toluidine blue or Methylene Blue mediated PDI with or without 0.6% chitosan, survival fraction; conditions: for PDI effect (survival fraction): 0.5 mM photosensitizer, 630±5 nm LED 50 J/cm^2, without chitosan; for survival fraction of Candida albicans: 0.6% (w/v) chitosan added after the PDI, 50 J/cm^2
compound,measurement,setting,value
"O=C1OC2(c3cc(I)c(O)c(I)c3Oc3c2cc(I)c(O)c3I)c2c(Cl)c(Cl)c(Cl)c(Cl)c21 [RB, Rose Bengal]",PDI effect (survival fraction),"[1]; 0.025 μM RB, 25 J/cm^2, 0.025% chitosan",complete removal of the bacteria
same,PDI effect (survival fraction),"[1]; 0.025 μM RB, 25 J/cm^2, without chitosan",not able to result in complete eradication
"Cc1cc2nc3ccc(N(C)C)cc3[s+]c2cc1N.[Cl-] [TB, toluidine blue]",PDI effect (survival fraction),Candida albicans,partially effective
same,survival fraction of Candida albicans,Candida albicans,greatly reduced
chlorine e6 [Ce6],PDI effect (survival fraction),"[1]; 0.05 μM Ce6, 0.1% (w/v) chitosan, 10 J/cm^2",complete eradication
same,PDI bacterial killing effect,"[1]; 0.05 μM Ce6 with chitosan, concentration dependent manner (0.01-0.1 μM)",significantly enhance
"CN(C)c1ccc2nc3ccc(=[N+](C)C)cc-3sc2c1 [MB, methylene blue]",PDI effect (survival fraction),"[1]; 2 μM MB, 0 J/cm^2, without chitosan",ineffective
same,PDI effect (survival fraction),"[1]; 2 μM MB, 0.025% (w/v) chitosan",significantly enhanced
same,PDI effect (survival fraction),"[1]; 2 μM MB, 0.025% (w/v) chitosan, 10-20 J/cm^2",complete eradication
same,PDI effect (survival fraction),"[1]; 2 μM MB, 5 J/cm^2, without chitosan",slightly effective
same,PDI effect (survival fraction),"[1]; 2 μM MB, 10-20 J/cm^2, without chitosan",apparently more effective than the lower dose
same,PDI effect (survival fraction),Candida albicans,partially effective
same,survival fraction of Candida albicans,Candida albicans,greatly reduced
